# Key:
# surinam grass = test: Test B pre/postemergence surinam grass; format: in vivo, Brachiaria decumbens
# Procedure, shortened: (§1)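 Herbicidal effect was estimated by eye on a ten-point control scale after plants spent twelve to sixteen days in a greenhouse following soil or foliar treatment. Foliar sprays targeted plants at one to four leaves; all doses were formulated in a non-phytotoxic solvent with surfactant.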
# cocklebur = test: Test B pre/postemergence cocklebur; format: in vivo, Xanthium strumarium
# Procedure, shortened: as §1
# corn = test: Test B pre/postemergence corn; format: in vivo, Zea mays
# Procedure, shortened: as §1
# crabgrass = test: Test B pre/postemergence crabgrass; format: in vivo, Digitaria sanguinalis
# Procedure, shortened: as §1
# giant foxtail = test: Test B pre/postemergence giant foxtail; format: in vivo, Setaria faberii
# Procedure, shortened: as §1
# morningglory = test: Test B pre/postemergence morningglory; format: in vivo, Ipomoea hederacea
# Procedure, shortened: as §1
# pigweed = test: Test B pre/postemergence pigweed; format: in vivo, Amaranthus retroflexus
# Procedure, shortened: as §1
# rape = test: Test B pre/postemergence rape; format: in vivo, Brassica napus
# Procedure, shortened: as §1
# sugar beet = test: Test B pre/postemergence sugar beet; format: in vivo, Beta vulgaris
# Procedure, shortened: as §1
# wheat = test: Test B pre/postemergence wheat; format: in vivo, Triticum aestivum
# Procedure, shortened: as §1
# wild oat = test: Test B pre/postemergence wild oat; format: in vivo, Avena fatua
# Procedure, shortened: as §1
# purple nutsedge = test: Test B pre/postemergence purple nutsedge; format: in vivo, Cyperus rotundus
# Procedure, shortened: as §1
# rice = test: Test B flood test rice; format: in vivo, Oryza sativa
# Procedure, shortened: (§2)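 Read-out is a visual response score from 0 (no effect) to 10 (complete control), assigned by comparison with untreated controls. Treatment was applied at the 2-leaf stage, and plants stayed in the greenhouse for twelve to sixteen days before scoring.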
# smallflower flatsedge = test: Test B flood test smallflower flatsedge; format: in vivo, Cyperus difformis
# Procedure, shortened: as §2
# duck salad = test: Test B flood test duck salad; format: in vivo, Heteranthera limosa
# Procedure, shortened: as §2
# bamyardgrass = test: Test B flood test barnyardgrass; format: in vivo, Echinochloa crus-galli
# Procedure, shortened: as §2
# [1] = Preemergence, Rate 62 g/ha, scale of 0 to 10 where 0 is no effect and 10 is complete control
# [2] = Preemergence, Rate 250 g/ha, scale of 0 to 10 where 0 is no effect and 10 is complete control
# [3] = Preemergence, Rate 500 g/ha, scale of 0 to 10 where 0 is no effect and 10 is complete control
# [4] = Rate 62 g/ha, Postemergence, scale 0 to 10 (0 no effect, 10 complete control)
# [5] = Rate 125 g/ha, Postemergence, scale of 0 to 10 where 0 is no effect and 10 is complete control
# [6] = Rate 125 g/ha, Preemergence, scale of 0 to 10 where 0 is no effect and 10 is complete control
# [7] = Rate 250 g/ha, Postemergence, scale of 0 to 10 where 0 is no effect and 10 is complete control
# [8] = Rate 500 g/ha, Postemergence, scale 0 to 10, 0 no effect, 10 complete control
# [9] = Rate 62 g/ha, headed Pre-emergence (flood test species), scale 0 to 10 (0 no effect, 10 complete control)
# [10] = Rate 125 g/ha, Pre-emergence, flood test species, scale 0 to 10 where 0 is no effect and 10 is complete control
# [11] = Rate 250 g/ha, Pre-emergence, flood-test species, scale 0 to 10, 0 is no effect, 10 is complete control
# [12] = Rate 500 g/ha, Pre-emergence, flood test species, scale 0 to 10 (0 no effect, 10 complete control)
smiles,measurement,setting,value
COCn1c(=O)on(C(=O)N(c2ccc(F)cc2)C(C)C)c1=O [Compound 293],B. signalgrass plant response rating,surinam grass; [1],2
same,B. signalgrass plant response rating,surinam grass; [2],7
same,"Plant response rating, B. signalgrass",surinam grass; [3],9
same,B. signalgrass plant response rating,surinam grass; [4],0
same,B. signalgrass plant response rating,surinam grass; [5],0
same,B. signalgrass plant response rating,surinam grass; [6],3
same,"Plant response rating, B. signalgrass",surinam grass; [7],7
same,B. signalgrass plant response rating,surinam grass; [8],7
same,Cocklebur plant response rating,cocklebur; [1],0
same,Cocklebur plant response rating,cocklebur; [2],0
same,"Plant response rating, Cocklebur",cocklebur; [3],0
same,Cocklebur plant response rating,cocklebur; [4],0
same,Cocklebur plant response rating,cocklebur; [5],0
same,Cocklebur plant response rating,cocklebur; [6],0
same,"Plant response rating, Cocklebur",cocklebur; [7],0
same,Cocklebur plant response rating,cocklebur; [8],0
same,Corn plant response rating,corn; [1],0
same,Corn plant response rating,corn; [2],9
same,Corn plant response rating,corn; [4],0
same,Corn plant response rating,corn; [5],0
same,Corn plant response rating,corn; [6],0
same,"Plant response rating, Corn",corn; [7],0
same,Corn plant response rating,corn; [8],3
same,Crabgrass plant response rating,crabgrass; [1],1
same,Crabgrass plant response rating,crabgrass; [2],8
same,"Plant response rating, Crabgrass",crabgrass; [3],8
same,Crabgrass plant response rating,crabgrass; [4],6
same,Crabgrass plant response rating,crabgrass; [5],8
same,Crabgrass plant response rating,crabgrass; [6],3
same,"Plant response rating, Crabgrass",crabgrass; [7],9
same,Giant foxtail plant response rating,giant foxtail; [1],9
same,Giant foxtail plant response rating,giant foxtail; [2],9
same,"Plant response rating, Giant foxtail",giant foxtail; [3],10
same,Giant foxtail plant response rating,giant foxtail; [4],5
same,Giant foxtail plant response rating,giant foxtail; [5],8
same,Giant foxtail plant response rating,giant foxtail; [6],9
same,"Plant response rating, Giant foxtail",giant foxtail; [7],8
same,Morningglory plant response rating,morningglory; [1],0
same,Morningglory plant response rating,morningglory; [2],0
same,"Plant response rating, Morningglory",morningglory; [3],4
same,Morningglory plant response rating,morningglory; [4],1
same,Morningglory plant response rating,morningglory; [5],5
same,Morningglory plant response rating,morningglory; [6],0
same,"Plant response rating, Morningglory",morningglory; [7],5
same,Redroot pigweed plant response rating,pigweed; [1],6
same,Redroot pigweed plant response rating,pigweed; [2],10
same,"Plant response rating, Redroot pigweed",pigweed; [3],10
same,Redroot pigweed plant response rating,pigweed; [4],0
same,Redroot pigweed plant response rating,pigweed; [5],2
same,Redroot pigweed plant response rating,pigweed; [6],8
same,"Plant response rating, Redroot pigweed",pigweed; [7],2
same,Rape plant response rating,rape; [1],0
same,Rape plant response rating,rape; [2],8
same,"Plant response rating, Rape",rape; [3],10
same,Rape plant response rating,rape; [4],0
same,Rape plant response rating,rape; [5],0
same,Rape plant response rating,rape; [6],6
same,"Plant response rating, Rape",rape; [7],0
same,Sugarbeets plant response rating,sugar beet; [1],0
same,Sugarbeets plant response rating,sugar beet; [2],4
same,"Plant response rating, Sugarbeets",sugar beet; [3],8
same,Sugarbeets plant response rating,sugar beet; [4],0
same,Sugarbeets plant response rating,sugar beet; [5],0
same,Sugarbeets plant response rating,sugar beet; [6],4
same,"Plant response rating, Sugarbeets",sugar beet; [7],3
same,Wheat plant response rating,wheat; [1],2
same,Wheat plant response rating,wheat; [2],8
same,"Plant response rating, Wheat",wheat; [3],9
same,Wheat plant response rating,wheat; [4],2
same,Wheat plant response rating,wheat; [5],6
same,Wheat plant response rating,wheat; [6],7
same,"Plant response rating, Wheat",wheat; [7],7
same,Wild oats plant response rating,wild oat; [1],1
same,Wild oats plant response rating,wild oat; [2],8
same,"Plant response rating, Wild oats",wild oat; [3],9
same,Wild oats plant response rating,wild oat; [4],0
same,Wild oats plant response rating,wild oat; [5],0
same,"Plant response rating, Wild oats",wild oat; [7],3
same,Nutsedge plant response rating,purple nutsedge; [1],0
same,Nutsedge plant response rating,purple nutsedge; [2],7
same,Nutsedge plant response rating,purple nutsedge; [4],0
same,Nutsedge plant response rating,purple nutsedge; [5],3
same,Nutsedge plant response rating,purple nutsedge; [6],0
same,"Plant response rating, Nutsedge",purple nutsedge; [7],8
same,Rice plant response rating,rice; [9],0
same,Rice plant response rating,rice; [10],0
same,Rice plant response rating,rice; [11],3
same,Rice plant response rating,rice; [12],5
same,S. Flatsedge plant response rating,smallflower flatsedge; [9],0
same,S. Flatsedge plant response rating,smallflower flatsedge; [10],0
same,S. Flatsedge plant response rating,smallflower flatsedge; [11],0
same,S. Flatsedge plant response rating,smallflower flatsedge; [12],0
same,Ducksalad plant response rating,duck salad; [9],0
same,Ducksalad plant response rating,duck salad; [10],0
same,Ducksalad plant response rating,duck salad; [11],0
same,Ducksalad plant response rating,duck salad; [12],0
same,Barnyardgrass plant response rating,bamyardgrass; [9],0
same,Barnyardgrass plant response rating,bamyardgrass; [10],0
same,Barnyardgrass plant response rating,bamyardgrass; [11],0
same,Barnyardgrass plant response rating,bamyardgrass; [12],5

# From patent US6737383B1, “Herbicidal oxadiazolidines” (priority 1999, dated 2004)
